Consider six compounds from US20100292232A1, “NON-NUCLEOSIDE REVERSE TRANSCRIPTASE INHIBITORS” (priority 2007, published 2010).

The subject of data set [1] is HIV reverse transcriptase having a mutation at codon 181 and 227. Conditions: strains with RT mutation at codon 181 (cysteine) and 227 (leucine); U.S. Pat. No. 7,037,644; cited from earlier work.
The test system of data set [2] is HIV reverse transcriptase having a mutation at codon 106 and 181 and 227. Conditions: strains with RT mutation at codon 106 (alanine), 181 (cysteine) and 227 (leucine); U.S. Pat. No. 7,037,644; cited from earlier work.
For data set [3], the system named is HIV reverse transcriptase having a mutation at codons 103 alone or in combination with a mutation at codon 188. To be noted: strains with RT mutation at codon 103 (asparagine) alone or with 188 (leucine); U.S. Pat. No. 7,037,644; cited from earlier work.
The subject of data set [4] is HIV-1 vector with RT mutation K103N. The data set can be described thus: microbe, parasite or virus in culture. Type of data set: cell-based. To be noted: Human immunodeficiency virus 1.
The subject of data set [5] is HIV-1 vector with RT mutation V106A. The data set is described as follows: microbe, parasite or virus in culture. Conditions: Human immunodeficiency virus 1. Type of data set: cell-based.
Data set [6] concerns VSV-G pseudotyped HIV-1 vector (wild-type, pNL4-3LucR+E-). The data set can be described thus: microbe, parasite or virus in culture. In kind it is cell-based. Conditions: for EC50 / IC50: Human immunodeficiency virus 1, HEK-293T.
Data set [7] relates to HIV-1 vector with RT mutation Y188L. The data set can be described thus: microbe, parasite or virus in culture. In kind it is cell-based. Conditions: Human immunodeficiency virus 1.
Data set [8] deals with HIV-1 vector with RT mutation Y181C. The data set is described as follows: microbe, parasite or virus in culture. To be noted: Human immunodeficiency virus 1. Type of data set: cell-based.
The subject of data set [9] is wild-type and NNRTI mutant viruses (Y188L, Y181C, V106A, K103N). The data set can be described thus: cell based infectivity assay, wild type and four mutant vectors together. Set-up: species or system HIV-1. To be noted: FIGS. 22 and 24.
The subject of data set [10] is HIV-1 reverse transcription viral DNA products. The data set is described as follows: real-time PCR quantitation of viral DNA products. In kind it is cell-based. Conditions: for effect on synthesis of early and late viral DNA products: 5 μM, 24 hours post infection, FIG. 18. On the procedure:
Real-time quantitation of viral DNA was accomplished using PCR as follows. The total cellular DNA was harvested 24 hours post infection with the AccuPrep genomic DNA extraction kit (Bioneer Life Science Corp., Rockville, Md.). The amount of viral DNA products was quantified by real-time PCR on ABI Prism 7900 Sequence Detection System (Applied Biosystems, Foster City, Calif.) with the following primers and probes: early HIV-1 reverse transcripts with primers ert2f, ert2r, probe ERT2 (Munk et al., Proc. Natl. Acad. Sci. 99(21):13843-48; 2002, herein incorporated by reference as to the sequence of the primers), late HIV-1 reverse transcripts with primers MH531, MH532, probe LRT-P, 2-LTR circular DNA with primers MHH535, MH536, probe MH603 (Butler et al., Nat. Med. 7(5):631-4; 2001, herein incorporated by reference as to the sequence of the primers and probes). To control the number of cell equivalent DNA in the samples, a single-copy locus in the porphobilinogen deaminase (PBGD) gene (Buckman et al., J. Virol. 77(2):1469-80; 2003) was amplified with primers PBGD1 (5′-[…]; SEQ ID NO: 1) and PBGD2 (5′-[…]; SEQ ID NO: 2) and probe PBGD-P (5′-VIC-[…]-MGBNFQ; SEQ ID NO: 3).
The quantitative real-time PCR-based approach described above was used to determine whether the presently disclosed compounds, such as 08-006-F2, block HIV infection at a step prior to the synthesis of late viral DNA products. Using different specific primers and probes, the amount of early viral DNA products, late viral DNA products, and 2LTR-containing circular forms of viral DNA, were quantified 24 hours post infection. […] As shown in F1G. 18, the effect of 5 μM compound 08-006-F2 and 5 μM AZT on the synthesis of viral DNA products was measured by quantitative real-time PCR. Quantitation of early and late HIV-1 reverse transcription products is illustrated, as is quantitation of 2-LTR containing circular DNA forms (the circular DNA forms serve as a surrogate marker for nuclear translocation of viral DNA). […]

A short description of data set [11]: cytotoxicity, CellTiter-Glo (ATP content) 24 hours after treatment. Conditions: human, mock-infected 293T cells.
Data set [12] deals with cells that express luciferase from established HIV-1 proviral DNA. The data set is described as follows: effect on provirus gene expression. Type of data set: cell-based. Conditions: data not shown. An excerpt:
It also was investigated whether 08-006-F2 exerts an additional effect on provirus gene expression.

Data set [13] addresses T1, HIV-1 reverse transcriptase (Human immunodeficiency virus type 1 group M subtype B, UniProt P04585).
T1 construct: HIV-1 RT includes a p66/p51 heterodimer; purchased Ambion, Austin, Tex
The data set can be described thus: in vitro purified HIV-1 reverse transcriptase assay. In kind it is biochemical. On the procedure: Anti-HIV-1 reverse transcriptase activity of the disclosed inhibitor compounds was assayed in vitro using an assay adapted from King et al. (Antimicrob. Agents Chemother. 46(6): 1640-46; 2002) and Telesnitsky et al. (Methods Enzymol. 262:347-62; 1995). HIV-1 RT (0.5 units; Ambion, Austin, Tex.) was incubated with various concentrations of compounds for 5 minutes at room temperature. Then a template-primer mixture was added to reach final concentration of 5 μg/mL oligo(dT)20, 10 μg/mL poly(rA), 1.25 μM [α-32P]dTTP and 10 μM dTTP. The mixture was incubated at 37° C. for 60 minutes. Aliquots of the reaction were spotted on DEAE paper, washed twice with 2×SSC buffer (300 mM NaCl, 30 mM sodium citrate) and once with 95% ethanol, dried and exposed to PhosphorImager screen (Molecular Dynamics, Sunnyvale, Calif.). The screens were scanned by FLA-5100 instrument (Fujifilm Life Science, Stamford, Conn.) and the amount of incorporated labeled phosphate was used to quantify the RT activity. The best fitted curves and IC50 values were calculated using Prism 4 software (GraphPad Software, San Diego). […] For the in vitro studies, a triphosphate form of AZT (EMD Biosciences, San Diego, Calif.) was used.

Structures are written as SMILES. “Also recorded” adds a separate entry of the source. Where two headings read alike, the source gives them in different places.

Consider `Cc1ccnc2c1NC(=O)c1cccnc1N2C1CC1` [nevirapine, Nevirapine], for which the “change in drug susceptibility” value in [1] is “significant decrease”; in [2], “substantial decrease”; in data set [3], “substantial decrease”.
Turning to `Cc1ccnc2c1NC(=O)c1cccnc1N2C1CC1` [NVP, nevirapine], the EC50 came to 977 nM in data set [4]; 888 nM in [5]; 27.4 nM in data set [6]; 279000 nM in data set [7]; 2000 nM in [8].
In the case of `CC(C)Nc1cccnc1N1CCN(C(=O)c2cc3cc(NS(C)(=O)=O)ccc3[nH]2)CC1` [delavirdine], the entries for the “change in drug susceptibility” value in data set [1], in data set [2] and in [3] were “increase”, “moderate decrease” and “substantial decrease”, respectively.
`O=C1Nc2ccc(Cl)cc2[C@@](C#CC2CC2)(C(F)(F)F)O1` [efavirenz]: the “change in drug susceptibility” value is “increase” in data set [1], “slight decrease” in [2] and “substantial decrease” in data set [3].
With `Cc1cn([C@H]2C[C@H](N=[N+]=[N-])[C@@H](CO)O2)c(=O)[nH]c1=O` [AZT, zidovudine], the EC50 in data set [4] is 8.76 nM; in [5], 9.14 nM; in [6], 7.7 nM; in [7], 9.35 nM; in data set [8], 6.12 nM. For the same compound, the “inhibition of wild-type and NNRTI-resistant RT mutant viruses (in words)” value in data set [9] is reported as “efficiently inhibited”. Further, the “effect on synthesis of early and late viral DNA products” value in [10] is given as “block at the reverse transcription step”.
`Clc1ccccc1-c1nc2ccccn2c1NC1CCCCC1` [08-006-F2]: in [11], the CC50 at 24 h is 35000 nM. Moreover, the EC50 in data set [4] stood at 2360 nM; in data set [5] it was 764 nM; in data set [6], 185 nM; in data set [8], 1070 nM. The “effect on provirus gene expression” value in [12] is “no significant influence”. The IC50 in data set [13] (FIG. 16 dose-response curve, read-out: IC50 inhibition of purified HIV-1 reverse transcriptase activity) was 2800 nM; in data set [6], 800 nM; in [6] (read-out: IC50 inhibition of HIV-1 vector infectivity) it was 170 nM. Moreover, the “combined effect with AZT on purified HIV-1 reverse transcriptase (isobologram)” value in data set [13] (combination with AZT triphosphate, 50% and 90% fractional inhibitory concentrations, FIGS. 17A, 17B) is “synergistic effect; also recorded: synergistic inhibition”. For the same compound, the “combined effect with AZT on HIV-1 infectivity (isobologram)” value in data set [6] was “synergistic effects; also recorded: synergistic inhibition”. In addition, the “effect on synthesis of early and late viral DNA products” value in data set [10] was “blocked the synthesis of early and late viral DNA”. In addition, the “inhibition of HIV-1 late RT product formation” value in [10] (dose response, FIG. 19) is “dose-dependent inhibition”.
